The assay relates to TSC2–/– iPSC-derived neurons. The experiment in a line: MEA weighted mean firing rate in TSC2–/– iPSC-derived neurons. Type of assay: cell-based, human. From the text: TSC2^–/– iPSC-derived cortical neurons were differentiated in two to three replicate batches, defined as independent plating of starting material iPSCs and use of reagents to differentiate iPSCs into neurons. The NGN2-induced cortical neurons were differentiated following previously published methods ([Winden et al., 2019]; [Zhang et al., 2013]) that are also described here. To establish a line of iPSCs expressing the NGN2 vector, on differentiation day - 2, iPSCs were dissociated with Accutase (Innovative Cell Technologies #AT104) and plated as single cells at 90,000 cells/cm^2 in mTeSR-1 media supplemented with 10 μM ROCK inhibitor (Y-27631, Cayman Chemical #10005583), on Geltrex-coated 12-well plates. While iPSCs were routinely cultured with StemFlex (as noted above), the NGN2 differentiation was optimized with mTeSR-1 media, so the switch was made to this media prior to initiating differentiation. One day after re-plating as single cells, on differentiation day - 1, iPSCs were transduced with lentiviral vectors expressing NGN2 and rtTA and 8 μg/ml polybrene (Sigma-Aldrich #TR-1003-G). The lentiviral particles were produced and concentrated at the Viral Core at Boston Children’s Hospital and were added to the culture at an MOI of 5 for each vector. Both plasmids are available at Addgene with the following IDs: 52047 and 20342. […]

Broadly, the pIC50 is the IC50 on a negative log10 scale, so that one unit is a factor of ten.

pIC50: −log10 of the molar value. A value given as a limit tells only on which side of the number the result lay.

Turning to `CO[C@H]1C[C@@H]2CC[C@@H](C)[C@@](O)(O2)C(=O)C(=O)N2CCCC[C@H]2C(=O)O[C@H]([C@H](C)C[C@@H]2CC[C@@H](O)[C@H](OC)C2)CC(=O)[C@H](C)/C=C(\C)[C@@H](O)[C@@H](OC)C(=O)[C@H](C)C[C@H](C)/C=C/C=C/C=C/1C` [Rapamycin, rapamycin], the pIC50 (Homo sapiens, Neuron, day 23, after 2 weeks treatment until day 21, replicate batch #1) is 10.82. In addition, the “Dose at which WMFR was lowered” value (during the 2 weeks treatment window, vs DMSO) is > 0.1 nM.

(Values after publication PMC12337281, “mTORC1-selective inhibitors rescue cellular phenotypes in TSC iPSC-derived neurons” (Frontiers in Neuroscience, 2025).)
